Experimental findings from patent US7122545B2, “Imidazo-benzothiazoles” (Hoffmann-La Roche Inc., priority 2003, dated 2006) are described below.

The target in series [1] is T1, human adenosine A1 receptor (Homo sapiens, UniProt P30542).
T1 construct: expressed in transfected cells; host or cells: CHO cells, semliki forest virus expression system; membrane preparation
T1 sequence (P30542 1-326): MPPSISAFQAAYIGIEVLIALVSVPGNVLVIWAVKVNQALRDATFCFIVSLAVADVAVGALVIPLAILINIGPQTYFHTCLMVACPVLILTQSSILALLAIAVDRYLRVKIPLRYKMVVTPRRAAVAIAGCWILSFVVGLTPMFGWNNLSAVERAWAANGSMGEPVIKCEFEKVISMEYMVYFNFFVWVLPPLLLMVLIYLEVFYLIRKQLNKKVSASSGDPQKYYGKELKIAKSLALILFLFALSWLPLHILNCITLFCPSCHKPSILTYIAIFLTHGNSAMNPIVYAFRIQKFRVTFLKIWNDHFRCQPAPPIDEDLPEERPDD
The series is described as follows: Human adenosine A1 receptor [3H]-DPCPX binding assay (SPA). To be noted: recombinant receptor in CHO cell membranes; [3H]-DPCPX 0.6 nM; Ki by Cheng-Prussoff; read-out: hA1 (pKi) (converted). As to the method:
Human Adenosine A1 receptor
(§1) The human adenosine A1 receptor was recombinantly expressed in Chinese hamster ovary (CHO) cells using the semliki forest virus expression system. Cells were harvested, washed twice by centrifugation, homogenized and again washed by centrifugation. The final washed membrane pellet was suspended in a Tris (50 mM) buffer containing 120 mM NaCl, 5 mM KCl, 2 mM CaCl2 and 10 mM MgCl2 (pH 7.4) (buffer A). The [^3H]-DPCPX (([propyl-^3H]8-cyclopentyl-1,3-dipropyxanthine); 0.6 nM) binding assay was carried out in 96-well plates in the presence of 2.5 μg of membrane protein, 0.5 mg of Ysi-poly-1-lysine SPA beads and 0.1 U adenosine deaminase in a final volume of 200 μl of buffer A. Non-specific binding was defined using xanthine amine congener (XAC; 2 μM). Compounds were tested at 10 concentrations from 10 μM–0.3 nM. All assays were conducted in duplicate and repeated at least two times. Assay plates were incubated for 1 hour at room temperature before centrifugation and then bound ligand determined using a Packard Topcount scintillation counter. IC50 values were calculated using a non-linear curve fitting program and Ki values calculated using the Cheng-Prussoff equation.

In series [2] the target is T2, human adenosine A2A receptor (Homo sapiens, UniProt P29274).
T2 construct: expressed in transfected cells; host or cells: CHO cells, semliki forest virus expression system; membrane preparation
T2 sequence (P29274 whole entry): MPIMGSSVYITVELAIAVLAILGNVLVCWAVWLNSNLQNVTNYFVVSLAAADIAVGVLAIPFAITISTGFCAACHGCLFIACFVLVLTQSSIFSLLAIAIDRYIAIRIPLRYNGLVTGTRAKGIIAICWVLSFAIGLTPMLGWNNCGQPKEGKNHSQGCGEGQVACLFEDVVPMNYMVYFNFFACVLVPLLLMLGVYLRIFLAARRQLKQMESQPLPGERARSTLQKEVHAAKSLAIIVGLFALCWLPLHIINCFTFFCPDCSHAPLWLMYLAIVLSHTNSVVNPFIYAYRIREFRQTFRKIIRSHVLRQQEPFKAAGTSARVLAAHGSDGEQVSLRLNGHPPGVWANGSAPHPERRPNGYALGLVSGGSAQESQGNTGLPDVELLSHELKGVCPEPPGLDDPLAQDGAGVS
Description: Human adenosine A2A receptor [3H]-SCH-58261 binding assay (SPA). To be noted: recombinant receptor in CHO cell membranes; [3H]-SCH-58261 1 nM; Ki by Cheng-Prussoff; read-out: hA2 (pKi) (converted). As for the experimental part:
Human Adenosine A2A Receptor
as §1, with “A2A” for “A1”, “[^3H]-SCH-58261 (Dionisotti et al., 1997, Br J Pharmacol 121, 353; 1” for “[^3H]-DPCPX (([propyl-^3H]8-cyclopentyl-1,3-dipropyxanthine); 0.6”, “μM-0.3” for “μM–0.3”, “duplic” for “duplicate”, “[…]” for “for 1”

For `COc1ccc(N2CCOCC2)c2sc(-c3nc4ccc(N(C)CC5CCOCC5)nc4[nH]3)nc12` [Example 14, [2-(4-Methoxy-7-morpholin-4-yl-benzothiazol-2-yl)-3H-imidazo[4,5-b]pyridin-5-yl]-methyl-(tetrahydro-pyran-4-ylmethyl)-amine], the Ki in series [1] is 2510 nM; in series [2] it was 3.16 nM.
For `COc1ccc(-c2ccccc2)c2sc(-c3ncc[nH]3)nc12` [Example 4, 2-(1H-Imidazol-2-yl)-4-methoxy-7-phenyl-benzothiazole], the melting point lay in the range of 205 to 206 °C. Further, in series [1], the Ki is 200 nM. In addition, in series [2], the Ki is 5.01 nM.
For `COc1ccc(N2CCOCC2)c2sc(-c3nc4c([nH]3)COCC4)nc12` [Example 23, 2-(4-Methoxy-7-morpholin-4-yl-benzothiazol-2-yl)-3,4,6,7-tetrahydro-pyrano[3,4-d]imidazole], the melting point lay within 203 to 204 °C. Further, the Ki in series [1] is 398 nM. The Ki in series [2] is 1.26 nM.
`COc1ccc(N2CCOCC2)c2sc(-c3nc4c([nH]3)CCCC4)nc12` [Example 22, 4-Methoxy-7-morpholin-4-yl-2-(4,5,6,7-tetrahydro-1H-benzoimidazol-2-yl)-benzothiazole]: the results for the Ki in series [1] and in series [2] were 794 nM and 2.51 nM, respectively.
On to `COc1ccc(N2CCOCC2)c2sc(-c3nc4ccc(N5CCOCC5)nc4[nH]3)nc12` [Example 9, 2-(4-Methoxy-7-morpholin-4-yl-benzothiazol-2-yl)-5-morpholin-4-yl-3H-imidazo[4,5-b]pyridine], for which, in series [2], the Ki was 2.51 nM.
Turning to `COc1ccc(N2CCOCC2)c2sc(-c3nc4ccccc4[nH]3)nc12` [Example 2, 2-(1H-Benzoimidazol-2-yl)-4-methoxy-7-morpholin-4-yl-benzothiazole], the melting point fell in the range of 284 to 286 °C. Also, in series [1], the Ki is 158 nM. For the same compound, the Ki in series [2] was 0.501 nM.
In turn, `COc1ccc(N2CCOCC2)c2sc(-c3nc4ccccc4n3C)nc12` [Example 3, 4-Methoxy-2-(1-methyl-1H-benzoimidazol-2-yl)-7-morpholin-4-yl-benzothiazole] showed a melting point of 283 to 285 °C. Also, the Ki in series [2] was 100 nM.
Regarding `COc1ccc(N2CCOCC2)c2sc(-c3nc4c([nH]3)CCN(C(=O)C3CC3)CC4)nc12` [Example 30, Cyclopropyl-[2-(4-methoxy-7-morpholin-4-yl-benzothiazol-2-yl)-4,5,7,8-tetrahydro-1H-imidazo[4,5-d]azepin-6-yl]-methanone], the Ki in series [1] was 1260 nM; in series [2], 1.58 nM.
With `COc1ccc(N2CCOCC2)c2sc(-c3nc4c([nH]3)CCN(C(=O)c3ccccc3C)CC4)nc12` [Example 28, [2-(4-Methoxy-7-morpholin-4-yl-benzothiazol-2-yl)-4,5,7,8-tetrahydro-1H-imidazo[4,5-d]azepin-6-yl]-o-tolyl-methanone], the melting point lay in the range of 194 to 196 °C. In addition, the Ki in series [1] is 1580 nM. Also, the Ki in series [2] was 1.26 nM.
As for `COc1ccc(N2CCOCC2)c2sc(-c3nc4ccc(Cl)nc4[nH]3)nc12` [Example 6, 5-Chloro-2-(4-methoxy-7-morpholin-4-yl-benzothiazol-2-yl)-3H-imidazo[4,5-b]pyridine], in series [2], the Ki was 3.16 nM.
As to `COc1ccc(N2CCOCC2)c2sc(-c3ncc(-c4sc5ccccc5c4C)[nH]3)nc12` [Example 20, 4-Methoxy-2-[5-(3-methyl-benzo[b]thiophen-2-yl)-1H-imidazol-2-yl]-7-morpholin-4-yl-benzothiazole], the melting point fell in the range of 213 to 215 °C. For the same compound, in series [2], the Ki was 50.1 nM.
Take `COc1ccc(N2CCOCC2)c2sc(-c3ncc[nH]3)nc12` [Example 1, 2-(1H-Imidazol-2-yl)-4-methoxy-7-morpholin-4-yl-benzothiazole]: the Ki in series [1] is 1000 nM; in series [2], 12.6 nM.
`COc1ccc(N2CCOCC2)c2sc(-c3nc4c([nH]3)CCN(C(=O)c3ccc(F)cc3)CC4)nc12` [Example 26, (4-Fluoro-phenyl)-[2-(4-methoxy-7-morpholin-4-yl-benzothiazol-2-yl)-4,5,7,8-tetrahydro-1H-imidazo[4,5-d]azepin-6-yl]-methanone] showed a melting point of 205 to 207 °C. In series [1], the Ki is 631 nM. Besides, the Ki in series [2] was 1 nM.
